Test results taken from US7491794B2, “Macrocyclic compounds as inhibitors of viral replication” (Intermune, Inc., priority 2003, dated 2009).

What was measured:
NS3-NS4 protease = target: T1, NS3-NS4 protease (Hepatitis C virus genotype 1a, UniProt P27958); assay: NS3-NS4 protease assay / NS3 inhibition assay, Section C; type: biochemical; settings: read-out: NS3-NS4 IC50
T1 construct: Recombinant E. coli or Baculovirus full-length NS3 was diluted to 3.33 μM with assay buffer; made in house; host or cells: E. coli or baculovirus (BV) system
Description: NS3 complex formation with NS4A-2.
Recombinant E. coli or Baculovirus full-length NS3 was diluted to 3.33 μM with assay buffer and transfered material to an eppendorf tube and place in water bath in 4° C. refrigerator. The appropriate amount of NS4A-2 to 8.3 mM in assay buffer was added to equal the volume of NS3 in step 2.1.1 (conversion factor −3.8 mg/272 μL assay buffer). The material was transferred to an eppendorf tube and place in water bath in 4° C. refrigerator.
After equilibration to 4° C., equal volumes of NS3 and NS4A-2 solutions were combined in an eppendorf tube, mix gently with a manual pipettor, and incubate mixture for 15 minutes in the 4° C. water bath. Final concentrations in the mixture are […] NS3, 4.15 mM NS4A-2 (2485-fold molar excess NS4A-2).
After 15 minutes at 4° C., the NS3/NS4A-2 eppendorf tube was removed and place it in a room temperature water bath for 10 minutes. NS3/NS4A-2 was alliquoted at appropriate volumes and store at −80° C. (E. coli NS3 run at 2 nM in assay, aliquot at 25 μL. BV NS3 run at 3 nM in assay, aliquot at 30 μL).
Step 2.2.5. Sample compounds were dissolved to 10 mM in DMSO then diluted to 2.5 mM (1:4) in DMSO.
Step 2.2.6. The E. coli. NS3/NS4A-2 was diluted to 4 nM NS3 (1:417.5 of […] stock−18 μL 1.67 μM stock+7497 μL assay buffer). The BV NS3/NS4A-2 was diluted to 6 nM NS3 (1:278.3 of 1.67 μM stock−24 μL 1.67 μM stock+6655 μL assay buffer).
Step 2.2.7. Using the manual multichannel pipettor, and being careful not to introduce bubbles into the plate, 50 μL assay buffer were added to wells A01-H01 of a black Costar 96-well polypropylene storage plate.
Step 2.2.8. Using the manual multichannel pipettor, and being careful not to introduce bubbles into the plate, 50 μL of diluted NS3/NS4A-2 from step 2.2.6 were added to wells A02-H12 of plate in step 2.2.7.
Step 2.2.9. Using the manual multichannel pipettor, and being careful not to introduce bubbles into the plate, 25 μL of the wells in drug dilution plate in step 2.2.5 were transferred to corresponding wells in assay plate in step 2.2.8. The tips on multichannel pipettor were changed for each row of compounds transferred.
Step 2.2.10. Using the manual multichannel pipettor, and being careful not to introduce bubbles into the plate, the contents of the wells from the assay plate in step 2.2.9 were mixed by aspirating and dispensing 35 μL of the 75 μL in each well five times. The tips on the multichannel pipettor were changed for each row of wells mixed.
Step 2.2.11. The plate was covered with a polystyrene plate lid, and the plate from step 2.2.10 containing NS3 protease and sample compounds was pre-incubated 10 minutes at room temperature.
While the plate from step 2.2.11 was pre-incubating, the RETS1 substrate was diluted in a 15 mL polypropylene centrifuge tube. The RETS1 substrate was diluted to 8 μM (1:80.75 of 646 μM stock−65 μL 646 μM stock+5184 μL assay buffer).
After the plate in step 2.2.11 was done pre-incubating, and using the manual multichannel, 25 μL of substrate were added to all wells on the plate. The contents of the wells of plate were quickly mixed, as in step 2.2.10, but mixing 65 μL of the 100 μL in the wells.
The plate was read in kinetic mode on the Molecular Devices SpectraMax Gemini XS plate reader. Reader settings: Read time: 30 minutes, Interval: 36 seconds, Reads: 51, Excitation λ: 335 nm, Emission λ: 495 nm, cutoff: 475 nm, Automix: off, Calibrate: once, PMT: high, Reads/well: 6, Vmax pts: 21 or 28/51 depending on length of linearity of reaction.
IC50s were determined using a four parameter curve fit equation, and converted to Ki's using the following Km's:
where Ki=IC50/(1+[S]/Km))

[1] = tested on: HCV sub-genomic replicon, GS4.3; assay: Quantitation by ELISA of NPTII in the HCV sub-genomic replicon, GS4.3, Section C; type: cell-based; settings: Hepatitis C virus; GS4.3 cells, 72 h incubation; read-out: EC50
Source text: Quantitation by ELISA of the selectable marker protein, Neomycin phosphotransferase II (NPTII) in the HCV Sub-Genomic Replicon, GS4.3
The HCV sub-genomic replicon (1377/NS3-3′, accession No. AJ242652), stably maintained in HuH-7 hepatoma cells, was created by Lohmann et al. Science 285: 110-113 (1999). The replicon-containing cell culture, designated GS4.3, was obtained from Dr. Christoph Seeger of the Institute for Cancer Research, Fox Chase Cancer Center, Philadelphia, Pa.
GS4.3 cells were maintained at 37° C., 5% CO2, in DMEM (Gibco 11965-092) supplemented with L-glutamine 200 mM (100×) (Gibco25030-081), non-essential amino acids (NEAA)(Biowhittaker 13-114E), heat-inactivated (HI) Fetal Bovine Serum(FBS)(Hyclone SH3007.03) and 750 μg/ml geneticin (G418)(Gibco 10131-035). Cells were sub-divided 1:3 or 4 every 2-3 days.
24 h prior to the assay, GS4.3 cells were collected, counted, and plated in 96-well plates (Costar 3585) at 7500 cells/well in 100 μl standard maintenance medium (above) and incubated in the conditions above. To initiate the assay, culture medium was removed, cells were washed once with PBS (Gibco 10010-023) and 90 μl Assay Medium (DMEM, L-glutamine, NEAA, 10% HI FBS, no G418) was added. Inhibitors were made as a 10× stock in Assay Medium, (3-fold dilutions from 10 μM to […] final concentration, final DMSO concentration 1%), 10 μl were added to duplicate wells, plates were rocked to mix, and incubated as above for 72 h.
An NPTII Elisa kit was obtained from AGDIA, Inc. (Compound direct ELISA test system for Neomycin Phosphotransferase II, PSP 73000/4800). Manufacturer's instructions were followed, with some modifications. 10×PEB-1 lysis buffer was made up to include 500 μM PMSF (Sigma P7626, 50 mM stock in isopropanol). After 72 h incubation, cells were washed once with PBS and 150 μl PEB-1 with PMSF was added per well. Plates were agitated vigorously for 15 minutes, room temperature, then frozen at −70° C. Plates were thawed, lysates were mixed thoroughly, and 100 μl were applied to an NPTII Elisa plate. A standard curve was made. Lysate from DMSO-treated control cells was pooled, serially diluted with PEB-1 with PMSF, and applied to duplicate wells of the ELISA plate, in a range of initial lysate amount of 150u1-2.5 ul. In addition, 100 μl buffer alone was applied in duplicate as a blank. Plates were sealed and gently agitated at room temperature for 2 h. Following capture incubation, the plates were washed 5×300 μl with PBS-T (0.5% Tween-20, PBS-T was supplied in the ELISA kit). For detection, a 1× dilution of enzyme conjugate diluent MRS-2 (5×) was made in PBS-T, into which 1:100 dilutions of enzyme conjugates A and B were added, as per instructions. Plates were resealed, and incubated with agitation, covered, room temperature, for 2 h. The washing was then repeated and 100 μl of room temperature TMB substrate was added. After approximately 30 minutes incubation (room temperature, agitation, covered), the reaction was stopped with 50 μl 3M sulfuric acid. Plates were read at 450 nm on a Molecular Devices Versamax plate reader.
Inhibitor effect was expressed as a percentage of DMSO-treated control signal, and inhibition curves were calculated using a 4-parameter equation: y=A+((B−A)/(1+((C/x)^D))), where C is half-maximal activity or EC50.

T1 sequence (P27958 1027-1657): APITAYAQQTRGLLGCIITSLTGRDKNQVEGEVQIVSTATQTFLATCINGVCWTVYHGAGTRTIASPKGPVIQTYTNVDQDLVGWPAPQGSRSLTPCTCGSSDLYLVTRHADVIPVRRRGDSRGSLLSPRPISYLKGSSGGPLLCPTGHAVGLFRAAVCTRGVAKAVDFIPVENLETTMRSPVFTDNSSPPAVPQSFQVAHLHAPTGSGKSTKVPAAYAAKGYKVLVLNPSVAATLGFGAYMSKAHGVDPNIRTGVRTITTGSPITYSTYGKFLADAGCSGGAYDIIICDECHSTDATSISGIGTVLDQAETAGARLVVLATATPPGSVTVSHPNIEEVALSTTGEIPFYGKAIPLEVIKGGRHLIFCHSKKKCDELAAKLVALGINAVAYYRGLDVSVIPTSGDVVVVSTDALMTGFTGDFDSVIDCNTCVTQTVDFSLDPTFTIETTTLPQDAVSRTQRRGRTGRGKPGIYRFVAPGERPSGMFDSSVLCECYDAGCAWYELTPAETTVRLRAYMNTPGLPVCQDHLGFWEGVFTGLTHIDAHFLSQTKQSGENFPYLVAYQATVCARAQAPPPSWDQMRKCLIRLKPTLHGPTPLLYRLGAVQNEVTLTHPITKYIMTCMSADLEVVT

Q: With `CN(C)S(=O)(=O)NC(=O)[C@@]12C[C@H]1/C=C\CCCCC[C@H](NC(=O)OC(C)(C)C)C(=O)N1C[C@H](OC(=O)N3CCc4ccccc4C3CN3CCCCC3)C[C@H]1C(=O)N2` (stereo partly drawn) [Compound 107, (1S,4R,6S,14S,18R)-1-Piperidin-1-ylmethyl-3,4-dihydro-1H-isoquinoline-2-carboxylic acid 14-tert-butoxycarbonylamino-2,15-dioxo-4-(N,N-dimethyl-sulfonylaminocarbonyl)-3,16-diaza-tricyclo[14.3.0.0^4,6]nonadec-7-en-18-yl ester] as the compound, how does the IC50 (NS3-NS4 protease) read?
A: < 100 nM

Q: And the EC50 [1]?
A: < 100 nM

Q: `CC(C)(C)OC(=O)N[C@H]1CCCCC/C=C\[C@@H]2C[C@@]2(C(=O)NS(=O)(=O)N2CCOCC2)NC(=O)[C@@H]2C[C@@H](OC(=O)N3Cc4ccccc4C3)CN2C1=O` [Compound 104, (1S,4R,6S,14S,18R)-1,3-Dihydro-isoindole-2-carboxylic acid 14-tert-butoxycarbonylamino-4-(morpholinosulfonyl-aminocarbonyl)-2,15-dioxo-3,16-diaza-tricyclo[14.3.0.0^4,6]nonadec-7-en-18-yl ester] was tested. Which IC50 (NS3-NS4 protease) did it give?
A: < 100 nM

Q: And the EC50 [1]?
A: < 100 nM

Q: Which IC50 (NS3-NS4 protease) does the source give for `CC(C)(C)OC(=O)N[C@H]1CCCCC/C=C\[C@@H]2C[C@@]2(C(=O)NS(=O)(=O)N2CCCC2)NC(=O)[C@@H]2C[C@@H](OC(=O)N3Cc4ccccc4C3)CN2C1=O` [Compound 103, (1S,4R,6S,14S,18R)-1,3-Dihydro-isoindole-2-carboxylic acid 14-tert-butoxycarbonylamino-4-(pyrrolidinosulfonyl-aminocarbonyl)-2,15-dioxo-3,16-diaza-tricyclo[14.3.0.0^4,6]nonadec-7-en-18-yl ester] here?
A: < 100 nM

Q: What about the EC50 [1] of the same compound?
A: < 100 nM

Q: For `Cc1ccc(NS(=O)(=O)NC(=O)[C@@]23C[C@H]2/C=C\CCCCC[C@H](NC(=O)OC(C)(C)C)C(=O)N2C[C@H](OC(=O)N4Cc5ccccc5C4)C[C@H]2C(=O)N3)cc1` [Compound 130, (1S,4R,6S,14S,18R)-1,3-Dihydro-isoindole-2-carboxylic acid 14-tert-butoxycarbonylamino-4-(4-methylphenylaminosulfonyl-aminocarbonyl)-2,15-dioxo-3,16-diaza-tricyclo[14.3.0.0^4,6]nonadec-7-en-18-yl ester], which IC50 (NS3-NS4 protease) is on record?
A: < 100 nM

Q: And the EC50 [1]?
A: < 100 nM

Q: With `CC(C)(C)OC(=O)N[C@H]1CCCCC/C=C\[C@@H]2C[C@@]2(C(=O)NS(=O)(=O)N2CCOCC2)NC(=O)[C@@H]2C[C@@H](OC(=O)N3Cc4ccc(Cl)cc4C3)CN2C1=O` [Compound 116, (1S,4R,6S,14S,18R)-5-Chloro-1,3-Dihydro-isoindole-2-carboxylic acid 14-tert-butoxycarbonylamino-4-(morpholino-sulfonyl-aminocarbonyl)-2,15-dioxo-3,16-diaza-tricyclo[14.3.0.0^4,6]nonadec-7-en-18-yl ester] as the compound, how does the IC50 (NS3-NS4 protease) read?
A: < 100 nM

Q: And the EC50 [1]?
A: < 1000 nM

Q: What does the source list for `CC(C)(C)OC(=O)N[C@H]1CCCCC/C=C\[C@@H]2C[C@@]2(C(=O)NS(=O)(=O)N2CCCC2)NC(=O)[C@@H]2C[C@@H](OC(=O)N3CCc4ccccc4C3CN3CCCCC3)CN2C1=O` (stereo partly drawn) [Compound 109, (1S,4R,6S,14S,18R)-1-Piperidin-1-ylmethyl-3,4-dihydro-1H-isoquinoline-2-carboxylic acid 14-tert-butoxycarbonylamino-2,15-dioxo-4-(pyrrolidino-sulfonylaminocarbonyl)-3,16-diaza-tricyclo[14.3.0.0^4,6]nonadec-7-en-18-yl ester]?
A: IC50 (NS3-NS4 protease): < 100 nM; EC50 [1]: < 1000 nM

Q: Which results are given for `COc1ccc(NS(=O)(=O)NC(=O)[C@@]23C[C@H]2/C=C\CCCCC[C@H](NC(=O)OC(C)(C)C)C(=O)N2C[C@H](OC(=O)N4Cc5ccccc5C4)C[C@H]2C(=O)N3)cc1` [Compound 129, (1S,4R,6S,14S,18R)-1,3-Dihydro-isoindole-2-carboxylic acid 14-tert-butoxycarbonylamino-4-(4-methoxyphenylaminosulfonyl-aminocarbonyl)-2,15-dioxo-3,16-diaza-tricyclo[14.3.0.0^4,6]nonadec-7-en-18-yl ester]?
A: IC50 (NS3-NS4 protease): < 100 nM; EC50 [1]: < 100 nM

Q: Which results are given for `CC(C)(C)OC(=O)N[C@H]1CCCCC/C=C\[C@@H]2C[C@@]2(C(=O)NS(=O)(=O)NC2CC2)NC(=O)[C@@H]2C[C@@H](OC(=O)N3Cc4ccccc4C3)CN2C1=O` [Compound 102]?
A: IC50 (NS3-NS4 protease): < 100 nM; EC50 [1]: < 100 nM

Q: What does the source list for `CC(C)(C)OC(=O)N[C@H]1CCCCC/C=C\[C@@H]2C[C@@]2(C(=O)NS(=O)(=O)NC2CCC2)NC(=O)[C@@H]2C[C@@H](OC(=O)N3Cc4ccccc4C3)CN2C1=O` [Compound 133, (1S,4R,6S,14S,18R)-1,3-Dihydro-isoindole-2-carboxylic acid 14-tert-butoxycarbonylamino-4-(cyclobutylaminosulfonyl-aminocarbonyl)-2,15-dioxo-3,16-diaza-tricyclo[14.3.0.0^4,6]nonadec-7-en-18-yl ester]?
A: IC50 (NS3-NS4 protease): < 100 nM; EC50 [1]: < 100 nM
